This note sets out measurements from ChEMBL document CHEMBL6078655, “Engineering of Novel Analogues That Are More Receptor-Selective and Potent than the Native Hormone, Insulin-like Peptide 5 (INSL5)” (J Med Chem, 2024).

For experiment [1], the target named is T1, Relaxin-3 receptor 2 (Homo sapiens, UniProt Q8TDU9). The experiment can be described thus: Agonist activity at RXFP4 in HEK293T cells assessed as beta-arrestin2 recruitment pretreated with coelenterazine for 10 mins followed by compound addition by BRET assay. It is filed as functional, cell-based. (In general: Recruitment of arrestin is a read-out of receptor activation apart from second messengers.)

The target of experiment [2] is T2, Relaxin-3 receptor 1 (Homo sapiens, UniProt Q9NSD7).
T2 sequence (Q9NSD7 whole entry): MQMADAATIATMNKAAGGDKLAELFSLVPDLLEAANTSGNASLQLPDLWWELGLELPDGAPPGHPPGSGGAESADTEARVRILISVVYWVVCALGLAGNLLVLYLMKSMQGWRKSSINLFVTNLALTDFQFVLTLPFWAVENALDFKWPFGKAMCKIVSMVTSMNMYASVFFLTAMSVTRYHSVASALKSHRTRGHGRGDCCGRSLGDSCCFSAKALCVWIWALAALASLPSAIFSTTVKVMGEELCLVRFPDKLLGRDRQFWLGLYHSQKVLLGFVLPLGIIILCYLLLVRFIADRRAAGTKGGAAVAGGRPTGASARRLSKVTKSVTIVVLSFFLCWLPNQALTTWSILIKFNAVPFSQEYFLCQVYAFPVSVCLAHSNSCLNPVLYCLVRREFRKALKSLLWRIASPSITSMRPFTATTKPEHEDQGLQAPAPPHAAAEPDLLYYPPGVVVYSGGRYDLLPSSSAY
Nature of the experiment: (§1) Agonist activity at RXFP3 (unknown origin) expressed in CHO cells co-transfected with pCRE-galactosidase reporter plasmid assessed as inhibition of forskolin-induced cAMP accumulation incubated for 6 hrs by reporter gene assay. It is filed as functional, cell-based. In general terms: Changes in cAMP serve as a functional read-out for many G protein-coupled receptors.

A short description of experiment [3]: Selectivity index, ratio of Ki for binding affinity to SmBit-tagged RXFP3 (unknown origin) expressed in HEK cells assessed as inhibition constant to Ki for binding affinity to LgBiT-tagged RXFP4 (unknown origin) expressed in HEK cells assessed as inhibition constant. It is filed as cell-based.
The target in experiment [4] is T1, Relaxin-3 receptor 2. The experiment can be described thus: Agonist activity at RXFP4 (unknown origin) expressed in CHO cells co-transfected with pCRE-galactosidase reporter plasmid assessed as inhibition of forskolin-induced cAMP accumulation incubated for 6 hrs by reporter gene assay. It is filed as functional, cell-based.
The target in experiment [5] is T1, Relaxin-3 receptor 2. Nature of the experiment: Antagonist activity at RXFP4 in HEK293T cells assessed as beta-arrestin2 recruitment pretreated with coelenterazine for 10 mins followed by compound addition by BRET assay. It is filed as functional, cell-based.
Experiment [6] deals with T1, Relaxin-3 receptor 2. The experiment can be described thus: Binding affinity to LgBiT-tagged RXFP4 (unknown origin) expressed in HEK cells assessed as inhibition constant incubated for 1 hr by NanoBiT assay. It is filed as cell-based.
Experiment [7] addresses T2, Relaxin-3 receptor 1. Nature of the experiment: Binding affinity to SmBit-tagged RXFP3 (unknown origin) expressed in HEK cells assessed as inhibition constant incubated for 1 hr by NanoBiT assay. It is filed as cell-based.
Experiment [8] addresses T3, Relaxin-3 receptor 1 (Homo sapiens) (UniProt Q9NSD7).
T3 sequence (whole entry): T2 sequence (Q9NSD7 whole entry)
The description is as §1. It is filed as functional, cell-based.

Calls of active or inactive are those of the source. The rule behind the calls is not given here. Where a SMILES comes first, the peptide text is derived from it. Bridges are numbered along the chain shown (N, C = ends). Roman numbers before positions name the chains, in order. [ ]: non-standard residue; d: D form. 1Nal = N[C@@H](Cc1cccc2ccccc12)C(=O)O; Agb = N=C(N)NCC[C@H](N)C(=O)O

T1 sequence (Q8TDU9 whole entry): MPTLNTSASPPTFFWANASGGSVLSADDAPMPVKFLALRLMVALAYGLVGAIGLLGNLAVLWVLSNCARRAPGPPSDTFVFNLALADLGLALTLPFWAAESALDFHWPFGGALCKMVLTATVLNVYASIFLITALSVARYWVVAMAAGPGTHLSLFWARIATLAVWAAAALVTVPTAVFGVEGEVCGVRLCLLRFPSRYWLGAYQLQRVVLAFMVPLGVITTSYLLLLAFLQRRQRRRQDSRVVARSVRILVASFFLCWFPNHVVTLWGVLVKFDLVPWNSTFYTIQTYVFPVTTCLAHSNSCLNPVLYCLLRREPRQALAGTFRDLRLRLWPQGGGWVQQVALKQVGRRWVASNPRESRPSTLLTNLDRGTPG

`CC[C@H](C)[C@@H]1NC(=O)[C@H](Cc2ccc(O)cc2)NC(=O)[C@H]([C@@H](C)CC)NC(=O)[C@H](C(C)C)NC(=O)[C@H]([C@@H](C)O)NC(=O)[C@H](CCCNC(=N)N)NC(=O)[C@H]([C@@H](C)CC)NC(=O)[C@H](Cc2ccc(O)cc2)NC(=O)[C@H](CCC(=O)O)NC(=O)[C@H](CC(C)C)NC(=O)CNC(=O)[C@@H](N)CSSC[C@H](N)C(=O)N[C@@H]([C@@H](C)O)C(=O)N[C@@H](CC(=O)O)C(=O)NCC(=O)N[C@@H](C)C(=O)N[C@@H](CO)C(=O)N[C@@H](CCSC)C(=O)N[C@@H](CCCCN)C(=O)N[C@@H](CC(=O)O)C(=O)N[C@@H](CC(C)C)C(=O)N[C@@H](CO)C(=O)N[C@@H](C)C(=O)N[C@@H](CC(C)C)C(=O)N[C@H](C(=O)O)CSSC[C@@H](C(=O)NCC(=O)NCC(=O)N[C@@H](CO)C(=O)N[C@@H](CCNC(=N)N)C(=O)N[C@@H](Cc2cccc3ccccc23)C(=O)O)NC1=O` (I: H-CGLEYIRTVIYICGGS[Agb][1Nal]-OH / II: H-CTDGASMKDLSALC-OH; disulfide I:1-II:1, I:13-II:14): the EC50 in experiment [1] was 40.7 nM; in experiment [2] (cho, read-out: EC50), > 10000 nM; in experiment [2] (read-out: pEC50 (converted)), > 10000 nM; in experiment [4] (read-out: pEC50 (converted)) it was 9.12 nM. Also, in experiment [3], the Ratio Ki is 1660. In addition, the result in experiment [5] was inactive. For the same molecule, the Ki amounted to 1.32 nM in experiment [6] and 2190 nM in experiment [7] (read-out: Ki).
`CC[C@H](C)[C@@H]1NC(=O)[C@H](Cc2ccc(O)cc2)NC(=O)[C@H]([C@@H](C)CC)NC(=O)[C@H](C(C)C)NC(=O)[C@H]([C@@H](C)O)NC(=O)[C@H](CCCNC(=N)N)NC(=O)[C@H]([C@@H](C)CC)NC(=O)[C@H](Cc2ccc(O)cc2)NC(=O)[C@H](CCC(=O)O)NC(=O)[C@H](CC(C)C)NC(=O)CNC(=O)[C@@H](NC(=O)[C@H](CC(C)C)NC(=O)[C@H](CCCNC(=N)N)NC(=O)[C@@H](NC(=O)[C@H](CO)NC(=O)[C@H](CCC(=O)O)NC(=O)[C@@H](N)CCCCN)C(C)C)CSSC[C@H](N)C(=O)N[C@@H]([C@@H](C)O)C(=O)N[C@@H](CC(=O)O)C(=O)NCC(=O)N[C@@H](CS)C(=O)N[C@H](CO)C(=O)N[C@@H](CCSC)C(=O)N[C@@H](CCCCN)C(=O)N[C@@H](CC(=O)O)C(=O)N[C@@H](CC(C)C)C(=O)N[C@@H](CO)C(=O)N[C@@H](C)C(=O)N[C@@H](CC(C)C)C(=O)N[C@H](C(=O)O)CSSC[C@@H](C(=O)N[C@@H](C)C(=O)N[C@@H](CO)C(=O)N[C@@H](CO)C(=O)N[C@@H](CCCNC(=N)N)C(=O)N[C@@H](Cc2c[nH]c3ccccc23)C(=O)O)NC1=O`: the values for the EC50 in experiment [1] and in experiment [4] (read-out: EC50) were 61.7 nM and 7.94 nM, respectively. Moreover, the outcome in experiment [8] was inactive. Besides, the Ratio Ki in experiment [3] was determined as 38. Moreover, the figures for the Ki in experiment [6], in experiment [7] (read-out: Ki) and in experiment [7] (read-out: pKi (converted)) were 7.76 nM, 195 nM and 295 nM, respectively.
As to `CC[C@H](C)[C@@H]1NC(=O)[C@H](Cc2ccc(O)cc2)NC(=O)[C@H]([C@@H](C)CC)NC(=O)[C@H](C(C)C)NC(=O)[C@H]([C@@H](C)O)NC(=O)[C@H](CCCNC(=N)N)NC(=O)[C@H]([C@@H](C)CC)NC(=O)[C@H](Cc2ccc(O)cc2)NC(=O)[C@H](CCC(=O)O)NC(=O)[C@H](CC(C)C)NC(=O)CNC(=O)[C@@H](N)CSSC[C@H](N)C(=O)N[C@@H]([C@@H](C)O)C(=O)N[C@@H](CC(=O)O)C(=O)NCC(=O)N[C@@H](CS)C(=O)N[C@H](CO)C(=O)N[C@@H](CCSC)C(=O)N[C@@H](CCCCN)C(=O)N[C@@H](CC(=O)O)C(=O)N[C@@H](CC(C)C)C(=O)N[C@@H](CO)C(=O)N[C@@H](C)C(=O)N[C@@H](CC(C)C)C(=O)N[C@H](C(=O)O)CSSC[C@@H](C(=O)N[C@@H](C)C(=O)N[C@@H](CO)C(=O)N[C@@H](CO)C(=O)N[C@@H](CCCNC(=N)N)C(=O)N[C@@H](Cc2c[nH]c3ccccc23)C(=O)O)NC1=O`, the result in experiment [8] was inactive. The Ratio Ki in experiment [3] was 49. Moreover, the EC50 in experiment [4] (read-out: EC50) amounted to 8.32 nM. The Ki in experiment [6] came to 8.71 nM; in experiment [7] (read-out: Ki), 426 nM.
